Calls of active or inactive are those of the source.
Tests used:
NADPH oxidase 1 = NADPH oxidase 1 (Homo sapiens, UniProt Q9Y5S8); format: functional, cell-based;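 note: Cell-based assay with luminescence read-out, IC50 derived from inhibitor dose-response curves; intracellular ROS from endogenous NOX1 in intact HT29 colon cancer cells; potency of inhibitors that lower the ROS luminescence signal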
[1] = Luminescent dose response cell-based high throughput screening assay for inhibitors of the Janus kinase 2 mutant JAK2V617F. [Related pubchem assays: 1446 (Primary screen.), 1521 (Confirmation assay.), 1486 (Counter screen.)]; format: functional
[2] = cytotoxicity toward NIH3T3 fibroblasts, dose response, counter-screen, cell-based, ATP luminescence, mouse fibroblasts (AID 2010); format: functional;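 note: cells exposed to compound for about 90 hours before reading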
[3] = biological target: T1, Heat shock factor protein 1 (Mus musculus, UniProt P38532); experiment: inhibition of MG132-induced HSE-luciferase signal, confirmation, cell-based, NIH3T3, luminescence, dose retest (AID 2382); format: functional;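 note: NIH3T3 fibroblasts with HSF1-driven luciferase reporter stressed by proteasome inhibitor MG132; luminescence from HSF1-driven luciferase expression after 8 hours of MG132 stress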
T1 sequence (P38532 whole entry): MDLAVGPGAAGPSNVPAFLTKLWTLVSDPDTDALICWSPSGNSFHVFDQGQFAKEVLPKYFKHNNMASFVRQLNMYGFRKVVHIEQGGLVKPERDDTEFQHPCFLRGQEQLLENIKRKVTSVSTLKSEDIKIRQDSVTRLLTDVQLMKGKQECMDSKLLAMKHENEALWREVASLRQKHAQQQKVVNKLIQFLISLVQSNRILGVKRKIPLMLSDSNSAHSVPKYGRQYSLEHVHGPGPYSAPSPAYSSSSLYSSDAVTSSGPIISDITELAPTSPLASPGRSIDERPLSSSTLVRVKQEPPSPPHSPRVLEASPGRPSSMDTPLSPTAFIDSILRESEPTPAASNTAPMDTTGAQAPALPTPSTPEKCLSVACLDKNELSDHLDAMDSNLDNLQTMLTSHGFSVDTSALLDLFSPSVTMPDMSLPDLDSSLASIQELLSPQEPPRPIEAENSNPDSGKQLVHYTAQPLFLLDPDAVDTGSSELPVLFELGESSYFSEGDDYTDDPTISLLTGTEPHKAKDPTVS

Paired box protein Pax-8 = Paired box protein Pax-8 (Homo sapiens, UniProt Q06710); experiment: inhibitors of PAX8-driven TPO luciferase reporter, dose response, RMG-I cells, cherry-pick (AID 687027); format: functional, cell-based;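 note: luciferase reporter driven by Pax8 target thyroperoxidase promoter measured by SteadyGlo luminescence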
Paired box protein Pax-8, sequence (Q06710 whole entry): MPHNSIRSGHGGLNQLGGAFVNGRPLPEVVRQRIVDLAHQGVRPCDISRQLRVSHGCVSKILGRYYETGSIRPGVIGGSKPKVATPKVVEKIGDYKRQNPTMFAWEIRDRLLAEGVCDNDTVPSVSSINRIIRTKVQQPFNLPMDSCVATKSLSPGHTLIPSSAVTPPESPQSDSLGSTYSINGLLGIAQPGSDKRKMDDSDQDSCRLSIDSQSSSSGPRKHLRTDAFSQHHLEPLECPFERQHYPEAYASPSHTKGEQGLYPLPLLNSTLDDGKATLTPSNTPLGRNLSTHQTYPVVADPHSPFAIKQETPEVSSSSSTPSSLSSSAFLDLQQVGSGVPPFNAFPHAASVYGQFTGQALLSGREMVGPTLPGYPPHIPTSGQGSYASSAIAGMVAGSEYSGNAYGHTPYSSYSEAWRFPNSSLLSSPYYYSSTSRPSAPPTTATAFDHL

[4] = inhibitors of intracellular T. cruzi replication, confirmation, NIH3T3 host cells, beta-gal luminescence (AID 2044); format: functional, cell-based;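 note: intracellular parasites grown in NIH/3T3 mouse fibroblasts as host cells; luminescent beta-galactosidase reporter signal from transgenic T. cruzi replicating inside host cells; inhibitors lower the luminescence signal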
Protein RecA = biological target: T2, Protein RecA (Mycobacterium tuberculosis, UniProt P9WHJ3); experiment: Fluorescence Cell-Free Homogeneous Dose Retest to Identify Inhibitors of RecA-Intein Splicing Activity. [Related pubchem assays (depositor defined):AID2097, AID2223, AID489010, AID492950]; format: functional
T2 sequence (P9WHJ3 whole entry): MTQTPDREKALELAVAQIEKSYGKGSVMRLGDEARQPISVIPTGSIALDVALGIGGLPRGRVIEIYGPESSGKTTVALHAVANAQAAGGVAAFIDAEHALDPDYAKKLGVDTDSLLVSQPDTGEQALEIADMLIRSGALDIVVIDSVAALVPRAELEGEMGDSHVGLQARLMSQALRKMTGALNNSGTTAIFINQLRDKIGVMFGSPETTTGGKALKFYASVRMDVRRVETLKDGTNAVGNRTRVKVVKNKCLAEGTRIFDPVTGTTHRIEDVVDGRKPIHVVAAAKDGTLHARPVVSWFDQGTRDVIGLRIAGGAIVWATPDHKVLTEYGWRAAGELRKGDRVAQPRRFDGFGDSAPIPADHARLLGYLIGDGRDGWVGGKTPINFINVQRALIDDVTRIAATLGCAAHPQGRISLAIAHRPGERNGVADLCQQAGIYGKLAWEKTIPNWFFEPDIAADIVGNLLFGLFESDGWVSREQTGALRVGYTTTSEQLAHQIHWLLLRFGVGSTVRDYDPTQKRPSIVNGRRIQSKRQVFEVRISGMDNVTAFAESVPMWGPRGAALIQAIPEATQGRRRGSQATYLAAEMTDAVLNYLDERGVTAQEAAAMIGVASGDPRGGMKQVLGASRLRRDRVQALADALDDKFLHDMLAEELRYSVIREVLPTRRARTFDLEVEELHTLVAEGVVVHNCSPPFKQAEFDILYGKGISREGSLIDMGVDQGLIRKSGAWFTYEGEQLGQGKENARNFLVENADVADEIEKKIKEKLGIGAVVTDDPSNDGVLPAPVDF

Jurkat = experiment: antigen receptor-induced NF-kB inhibitors, dose response, Jurkat, luciferase reporter, luminescence, B- and T-cell (AID 489004); format: functional, cell-based; details: Homo sapiens;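 note: NF-kB luciferase reporter Jurkat cells stimulated with PMA plus ionomycin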
[5] = biological target: T3, Replicative DNA helicase DnaB (Mycobacterium tuberculosis, UniProt P9WMR3); experiment: DnaB intein splicing inhibitors, dose response, biochemical, cell-free fluorescence (AID 449749); format: functional
T3 sequence (P9WMR3 whole entry): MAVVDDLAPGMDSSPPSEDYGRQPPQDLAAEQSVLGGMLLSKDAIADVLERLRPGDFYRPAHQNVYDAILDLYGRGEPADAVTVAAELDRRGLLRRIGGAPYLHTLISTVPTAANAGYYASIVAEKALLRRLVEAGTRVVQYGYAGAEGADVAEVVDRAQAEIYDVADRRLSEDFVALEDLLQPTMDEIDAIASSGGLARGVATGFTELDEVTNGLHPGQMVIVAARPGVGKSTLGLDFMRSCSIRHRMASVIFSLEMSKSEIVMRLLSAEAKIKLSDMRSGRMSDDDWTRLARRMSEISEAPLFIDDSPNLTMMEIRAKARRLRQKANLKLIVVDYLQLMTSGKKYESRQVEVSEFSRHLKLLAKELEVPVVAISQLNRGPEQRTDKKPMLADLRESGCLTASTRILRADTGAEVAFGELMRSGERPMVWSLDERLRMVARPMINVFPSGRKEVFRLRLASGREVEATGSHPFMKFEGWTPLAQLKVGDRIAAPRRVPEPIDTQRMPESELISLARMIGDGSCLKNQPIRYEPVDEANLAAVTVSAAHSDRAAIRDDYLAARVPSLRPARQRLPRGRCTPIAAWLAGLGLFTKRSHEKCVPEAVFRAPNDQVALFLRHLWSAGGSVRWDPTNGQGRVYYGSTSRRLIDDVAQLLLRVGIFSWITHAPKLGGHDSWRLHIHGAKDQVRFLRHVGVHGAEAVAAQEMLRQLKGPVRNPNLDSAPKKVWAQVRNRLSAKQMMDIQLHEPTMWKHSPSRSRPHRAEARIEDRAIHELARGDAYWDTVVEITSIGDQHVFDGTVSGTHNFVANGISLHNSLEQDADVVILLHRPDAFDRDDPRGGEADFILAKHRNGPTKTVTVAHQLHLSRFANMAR

[6] = non-specific cell cytotoxicity, dose response, cytotoxicity control for PAX8 inhibitor project, plate reader, dry powder samples (AID 743021); format: functional, cell-based
[7] = cytotoxicity in HEK-293T NF-kB-Luc cells, dose response, cytotoxicity control for B/T-cell NF-kB inhibitor project, cell-based, uHTS hits (AID 489019); format: functional;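 note: IC50 reflects cytotoxicity as loss of cell viability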
Aspartyl aminopeptidase = biological target: T4, Aspartyl aminopeptidase (Plasmodium falciparum 3D7, UniProt Q8I2J3); experiment: Counterscreen for inhibitors of M1 and M17 aminopeptidases: QFRET-based biochemical high throughput dose response assay for inhibitors of the Plasmodium falciparum M18 Aspartyl Aminopeptidase (PFM18AAP). [Related PubChem assays: 1619 (Screening assay (M17LAP inhibitors).), 1445 (Screening assay (M1AAP inhibitors).)]
T4 sequence (Q8I2J3 whole entry): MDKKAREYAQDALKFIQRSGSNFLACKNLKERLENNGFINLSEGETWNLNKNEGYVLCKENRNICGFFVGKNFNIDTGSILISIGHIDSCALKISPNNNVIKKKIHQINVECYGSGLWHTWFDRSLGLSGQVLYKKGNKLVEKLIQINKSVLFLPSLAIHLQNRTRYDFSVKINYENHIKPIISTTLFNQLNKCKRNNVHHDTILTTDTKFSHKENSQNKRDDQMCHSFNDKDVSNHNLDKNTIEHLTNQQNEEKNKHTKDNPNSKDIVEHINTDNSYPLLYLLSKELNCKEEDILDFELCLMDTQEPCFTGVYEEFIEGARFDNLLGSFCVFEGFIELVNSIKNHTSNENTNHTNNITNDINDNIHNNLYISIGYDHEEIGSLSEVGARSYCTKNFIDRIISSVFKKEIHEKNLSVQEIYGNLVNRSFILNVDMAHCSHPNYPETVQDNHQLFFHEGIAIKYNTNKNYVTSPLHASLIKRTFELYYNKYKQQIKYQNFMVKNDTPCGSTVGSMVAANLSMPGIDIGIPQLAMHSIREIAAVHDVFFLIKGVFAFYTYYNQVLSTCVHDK

Leucine aminopeptidase = biological target: T5, Leucine aminopeptidase (Plasmodium falciparum 3D7, UniProt Q8IL11); experiment: P. falciparum M17LAP inhibitors, primary screen, biochemical, fluorogenic H-Leu-NHMec substrate, 1536-well (AID 1619); format: functional
T5 sequence (Q8IL11 whole entry): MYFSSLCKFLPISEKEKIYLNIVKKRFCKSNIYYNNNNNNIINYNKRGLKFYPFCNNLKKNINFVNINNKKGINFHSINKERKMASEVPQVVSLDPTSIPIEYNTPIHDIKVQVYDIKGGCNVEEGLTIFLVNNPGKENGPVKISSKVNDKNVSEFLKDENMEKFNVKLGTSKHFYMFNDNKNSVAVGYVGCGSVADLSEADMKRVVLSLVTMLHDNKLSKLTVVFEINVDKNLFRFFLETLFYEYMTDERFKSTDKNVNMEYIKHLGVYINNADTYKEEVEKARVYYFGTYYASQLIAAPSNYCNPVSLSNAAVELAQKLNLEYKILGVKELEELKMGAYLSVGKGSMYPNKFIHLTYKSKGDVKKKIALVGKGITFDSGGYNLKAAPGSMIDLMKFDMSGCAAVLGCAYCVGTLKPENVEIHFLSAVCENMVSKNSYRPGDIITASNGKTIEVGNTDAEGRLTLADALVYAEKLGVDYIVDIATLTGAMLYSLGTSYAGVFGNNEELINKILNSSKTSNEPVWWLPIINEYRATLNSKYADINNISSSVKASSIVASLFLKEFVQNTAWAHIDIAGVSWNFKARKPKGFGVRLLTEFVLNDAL

Procathepsin L = Procathepsin L (Homo sapiens, UniProt P07711); experiment: cathepsin L inhibitors, dose response, counter-screen for M1/M17 aminopeptidase inhibitor project, biochemical, QFRET, 1536-well (AID 2214)
Procathepsin L, sequence (P07711 whole entry): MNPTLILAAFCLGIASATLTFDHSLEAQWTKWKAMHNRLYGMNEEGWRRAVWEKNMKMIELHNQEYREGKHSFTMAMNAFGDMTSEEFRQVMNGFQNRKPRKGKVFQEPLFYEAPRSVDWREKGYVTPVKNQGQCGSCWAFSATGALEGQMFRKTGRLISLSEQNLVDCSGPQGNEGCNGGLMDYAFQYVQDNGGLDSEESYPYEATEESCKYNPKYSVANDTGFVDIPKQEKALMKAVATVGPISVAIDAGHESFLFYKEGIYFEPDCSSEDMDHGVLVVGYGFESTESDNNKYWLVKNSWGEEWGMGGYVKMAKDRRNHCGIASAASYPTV

[8] = biological target: T6, E3 ubiquitin-protein ligase XIAP (Homo sapiens, UniProt P98170); experiment: XIAP antagonists, biochemical, IAP family, fluorescence polarization (AID 1018); format: functional
T6 sequence (P98170 whole entry): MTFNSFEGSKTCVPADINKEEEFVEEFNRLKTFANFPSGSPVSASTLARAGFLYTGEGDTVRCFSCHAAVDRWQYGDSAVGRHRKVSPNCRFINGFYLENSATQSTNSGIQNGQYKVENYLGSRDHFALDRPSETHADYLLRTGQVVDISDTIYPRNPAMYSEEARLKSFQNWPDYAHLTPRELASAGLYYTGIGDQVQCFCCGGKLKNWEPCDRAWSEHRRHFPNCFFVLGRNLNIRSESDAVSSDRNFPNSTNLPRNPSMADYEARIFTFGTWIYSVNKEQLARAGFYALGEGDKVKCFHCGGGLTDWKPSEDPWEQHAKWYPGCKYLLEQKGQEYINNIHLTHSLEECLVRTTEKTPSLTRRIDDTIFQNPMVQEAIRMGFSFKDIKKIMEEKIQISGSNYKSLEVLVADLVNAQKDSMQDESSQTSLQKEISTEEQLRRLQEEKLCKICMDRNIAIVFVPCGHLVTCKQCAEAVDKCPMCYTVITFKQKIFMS

[9] = biological target: T6, E3 ubiquitin-protein ligase XIAP; experiment: Counter Screen using XIAP-Bir3 for Chemical Antagonists of Bir1/2 domains of IAP-family anti-apoptotic proteins. [Related pubchem assays (depositor defined):AID1018, AID1449, AID1514, AID1638, AID1749, AID1750, AID488957, AID488963]
[10] = Luminescence Cell-Based Dose Response HTS to Identify Activators of Luciferase Translation or Activity in H4 […] Cells. [Related pubchem assays: 1829 (Project Summary), 1814 (Primary HTS)]; format: functional
[11] = Luminescence Cell-Based Dose Confirmation to Identify Activators of 5'UTR Stem-Loop Driven Alpha-Synuclein mRNA Translation in H4 Neuroglioblastoma Cells. [Related pubchem assays: 1829 (Project Summary), 1814 (Primary HTS)]; format: functional
H4 = experiment: Luminescence Cell-Based Dose Response HTS to Identify Activators of 5'UTR Stem-Loop Driven Prion Protein mRNA Translation in H4 Neuroglioblastoma Cells. [Related pubchem assays: 1829 (Project Summary), 1814 (Primary HTS)]; format: functional; details: Homo sapiens
[12] = Luminescence Cell-Based Dose Response to Identify Activators of 5'UTR Stem-Loop Driven Prion Protein mRNA Translation in H4-C Neuroglioblastoma Cells. [Related pubchem assays: 1829 (Project Summary), 1814 (Primary HTS)]; format: functional
[13] = Luminescence Cell-Based Dose Response to Identify Activators of Luciferase Translation or Activity in H4-C Neuroglioblastoma Cells. [Related pubchem assays: 1829 (Project Summary), 1814 (Primary HTS)]; format: functional
[14] = biological target: Sphingosine 1-phosphate receptor 2 (Homo sapiens, UniProt O95136); experiment: Dose Response Cell Based Assay for Agonists of the S1P2 Receptor of Purchased Analogues. [Related pubchem assays: 729, 843, 854, 736 ]; format: functional
Sphingosine 1-phosphate receptor 2, sequence (O95136 whole entry): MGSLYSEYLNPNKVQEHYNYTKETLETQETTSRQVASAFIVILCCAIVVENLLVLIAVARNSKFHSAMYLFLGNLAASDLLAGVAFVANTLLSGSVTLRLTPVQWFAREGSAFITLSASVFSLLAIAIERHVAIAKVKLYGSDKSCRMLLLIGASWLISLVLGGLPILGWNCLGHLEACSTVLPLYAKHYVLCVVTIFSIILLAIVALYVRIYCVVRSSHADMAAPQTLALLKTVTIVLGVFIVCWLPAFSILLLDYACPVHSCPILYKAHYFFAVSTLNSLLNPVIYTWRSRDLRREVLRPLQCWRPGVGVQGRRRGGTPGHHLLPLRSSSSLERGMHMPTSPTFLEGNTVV

NADPH oxidase 1, sequence (Q9Y5S8 whole entry): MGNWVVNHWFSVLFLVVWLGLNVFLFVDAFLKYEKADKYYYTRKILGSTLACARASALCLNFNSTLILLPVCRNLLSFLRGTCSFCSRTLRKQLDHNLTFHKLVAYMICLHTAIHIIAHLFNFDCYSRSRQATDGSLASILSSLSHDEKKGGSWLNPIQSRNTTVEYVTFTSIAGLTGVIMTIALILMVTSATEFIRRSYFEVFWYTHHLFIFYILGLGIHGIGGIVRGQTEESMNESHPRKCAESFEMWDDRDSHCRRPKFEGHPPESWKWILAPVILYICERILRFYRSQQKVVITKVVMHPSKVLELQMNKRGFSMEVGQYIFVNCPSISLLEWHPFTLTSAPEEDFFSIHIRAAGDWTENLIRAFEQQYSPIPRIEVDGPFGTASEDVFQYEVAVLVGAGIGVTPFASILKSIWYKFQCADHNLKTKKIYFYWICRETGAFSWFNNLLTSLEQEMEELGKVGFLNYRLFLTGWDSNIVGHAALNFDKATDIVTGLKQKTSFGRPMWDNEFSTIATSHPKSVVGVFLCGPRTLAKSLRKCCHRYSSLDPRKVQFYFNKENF

COc1ccccc1OC(=O)c1sc2ccccc2c1Cl
IC50 (NADPH oxidase 1): > 17 µM (not active)

O=C(CCl)/N=c1\sccn1Cc1ccc(Cl)cc1Cl
EC50 (cells): < 0.004 µM (active) | IC50 [1]: 0.235 µM (active) | EC50 [2]: 0.192 µM (active) | EC50 [3]: 0.361 µM (active) | AC50 (Paired box protein Pax-8): 1.36 µM (active) | EC50 [4]: < 0.1 µM (active) | EC50 (Protein RecA): 15.1 µM (active) | IC50 (Jurkat): < 0.16 µM (active) | AC50 [5]: 27.2 µM (active) | AC50 [6]: 2.54 µM (active) | IC50 [7]: > 80 µM (inactive)

COc1ccc(-c2cc(=O)[nH][nH]2)cc1OC
IC50 (Aspartyl aminopeptidase): > 73.5 µM (not active) | IC50 (Leucine aminopeptidase): 7.86 µM (active) | EC50 (Protein RecA): 0.38 µM (active) | AC50 [5]: 1.01 µM (active) | IC50 (Procathepsin L): > 59.6 µM (not active)

O=C(NC(=S)NC1CC1)c1cccnc1
IC50 [8]: > 100 µM (not active) | IC50 [9]: > 100 µM (inactive)

CC1(C)CC(=O)/C(=N/Nc2ccc(Cl)cc2)CO1
EC50 [10]: 0.207 µM (active) | EC50 [11]: 0.504 µM (active) | EC50 (H4): < 0.1 µM (active) | EC50 [12]: 0.422 µM (active) | EC50 [13]: 0.324 µM (active)

Cc1cc(C(=O)CSc2nnnn2C)c(C)n1Cc1ccccc1
EC50 [14]: 30 µM (not active)

Source: ChEMBL document CHEMBL1201862, “PubChem BioAssay data set” (2004)
